Measured values taken from patent publication US3956291A, “7-Thioacetamido cephalosporanic acid derivatives” (American Home Products Corporation, priority 1974, dated 1976).
Values after ≈ are worked out from the molar mass of the structure shown. Like-named read-outs stand apart in the source and are kept apart here.

Assays:
Assay in all cases: agar serial dilution test, minimum inhibitory concentration
Assay type in all cases: cell-based
Staphylococcus aureus = conditions: for MIC: Staphylococcus aureus
Source text: (§1) The compounds of this invention are useful for the treatment of bacterial infections amenable to treatment by cephalosporins. […] In accordance with the results obtained with the antibacterial compounds of this invention, their usefulness is established in the fields of comparative pharmacology and microbiology for the purpose of inhibiting the growth of undesirable bacterial colonies. […]

bacillus subtilis = conditions: BA SU strain 6633; for MIC: Bacillus subtilis
Source text: as §1

bordetella brochiseptica = conditions: BO BR strain 4617
Source text: as §1

escherichia coli = tested on: escherichia coli
Source text: as §1

klebsiella pneumoniae = tested on: klebsiella pneumoniae
Source text: as §1

neisseria catarrhalis = tested on: neisseria catarrhalis
Source text: as §1

proteus vulgaris = tested on: proteus vulgaris
Source text: as §1

salmonella paratyphi = conditions: Salmonella enterica, read-out: Minimum Inhibitory Concentration
Source text: as §1

[1] = KL PN strain 10031, read-out: Minimum Inhibitory Concentration
[2] = NE CA strain 8193, read-out: Minimum Inhibitory Concentration
[3] = PR VU strain 6896, read-out: Minimum Inhibitory Concentration
[4] = read-out: Minimum Inhibitory Concentration

Compound	MIC (Staphylococcus aureus; ST AU strain 53-180)	MIC (Staphylococcus aureus; ST AU strain 6538P)	MIC (Staphylococcus aureus; ST AU strain CHP)	MIC (Staphylococcus aureus; ST AU strain Smith)	MIC (bacillus subtilis)	MIC (bordetella brochiseptica)	MIC (escherichia coli; ES CO strain 920)	MIC (escherichia coli; ES CO strain 9637)	MIC (klebsiella pneumoniae; [1])	MIC (neisseria catarrhalis; [2])	MIC (proteus vulgaris; [3])	MIC (salmonella paratyphi)	MIC (Staphylococcus aureus; ST AU (ditto mark) strain 9637 (so in the source))	MIC (proteus vulgaris; [4])	MIC (klebsiella pneumoniae; [4])	MIC (neisseria catarrhalis; [4])	Minimum Inhibitory Concentration (Staphylococcus aureus; ST AU strain 6538P)	Minimum Inhibitory Concentration (Staphylococcus aureus; ST AU strain Smith)	Minimum Inhibitory Concentration (bacillus subtilis)
CC(=O)OCC1=C(C(=O)O)N2C(=O)[C@@H](NC(=O)CSC(=NC#N)SCc3cccc(Cl)c3)[C@H]2SC1 [Example 16, 7-[2-[(3-chlorophenylmethylthio) (cyanoimino)methylthio]acetamido]cephalosporanic acid]	3.9 mg/L (≈ 7.03 µM)	0.976 mg/L (≈ 1.76 µM)	1.95 mg/L (≈ 3.51 µM)	1.95 mg/L (≈ 3.51 µM)	0.122 mg/L (≈ 0.22 µM)	250 mg/L (≈ 450 µM)	250 mg/L (≈ 450 µM)	250 mg/L (≈ 450 µM)	125 mg/L (≈ 225 µM)	125 mg/L (≈ 225 µM)	125 mg/L (≈ 225 µM)	31.3 mg/L (≈ 56.4 µM)	–	–	–	–	–	–	–
CC(=O)OCC1=C(C(=O)O)N2C(=O)[C@@H](NC(=O)CSC(=C[N+](=O)[O-])SCc3ccccc3)[C@H]2SC1 [Example 9, 7-[2-(1-Benzylthio-2-nitroethenylthio)acetamido]cephalosporanic acid]	0.488 mg/L (≈ 0.904 µM)	0.122 mg/L (≈ 0.226 µM)	0.488 mg/L (≈ 0.904 µM)	0.122 mg/L (≈ 0.226 µM)	0.031 mg/L (≈ 0.0574 µM)	250 mg/L (≈ 463 µM)	–	250 mg/L (≈ 463 µM)	125 mg/L (≈ 232 µM)	7.81 mg/L (≈ 14.5 µM)	125 mg/L (≈ 232 µM)	62.5 mg/L (≈ 116 µM)	–	–	–	–	–	–	–
CSC(=NC#N)SCC(=O)N[C@@H]1C(=O)N2C(C(=O)O)=C(COC(C)=O)CS[C@H]12 [Example 5]	3.9 mg/L (≈ 8.77 µM)	1.95 mg/L (≈ 4.39 µM)	7.81 mg/L (≈ 17.6 µM)	0.976 mg/L (≈ 2.2 µM)	0.976 mg/L (≈ 2.2 µM)	125 mg/L (≈ 281 µM)	250 mg/L (≈ 562 µM)	–	125 mg/L (≈ 281 µM)	250 mg/L (≈ 562 µM)	62.5 mg/L (≈ 141 µM)	31.3 mg/L (≈ 70.4 µM)	125 mg/L (≈ 281 µM)	–	–	–	–	–	–
CC(=O)OCC1=C(C(=O)O)N2C(=O)[C@@H](NC(=O)CSC(=NC#N)SCC(=O)O)[C@H]2SC1 [Example 15, 7-[2-[(cyanoimino)(2-hydroxy-2-oxoethylthio)methylthio]acetamido]cephalosporanic acid]	–	15.6 mg/L (≈ 31.9 µM)	62.5 mg/L (≈ 128 µM)	7.81 mg/L (≈ 16 µM)	1.95 mg/L (≈ 3.99 µM)	–	–	–	250 mg/L (≈ 512 µM)	–	–	125 mg/L (≈ 256 µM)	–	125 mg/L (≈ 256 µM)	–	–	–	–	–
CC(=O)OCC1=C(C(=O)O)N2C(=O)[C@@H](NC(=O)CSC(SCC#N)=C(C#N)c3ccccc3)[C@H]2SC1 [Example 8, 7-(2-[2-Cyano-1-(cyanomethylthio)-2-phenylethenylthio]acetamido)cephalosporanic acid]	0.976 mg/L (≈ 1.79 µM)	0.244 mg/L (≈ 0.448 µM)	0.976 mg/L (≈ 1.79 µM)	0.244 mg/L (≈ 0.448 µM)	0.031 mg/L (≈ 0.0569 µM)	250 mg/L (≈ 459 µM)	250 mg/L (≈ 459 µM)	25 mg/L (≈ 45.9 µM)	–	3.9 mg/L (≈ 7.16 µM)	250 mg/L (≈ 459 µM)	62.5 mg/L (≈ 115 µM)	–	–	62.5 mg/L (≈ 115 µM)	–	–	–	–
CCOC(=O)CSC(=NC#N)SCC(=O)N[C@@H]1C(=O)N2C(C(=O)O)=C(COC(C)=O)CS[C@H]12 [Example 12, 7-[2-[(cyanoimino)(2-ethoxy-2-oxoethylthio)methylthio]acetamido]cephalosporanic acid]	1.95 mg/L (≈ 3.77 µM)	0.976 mg/L (≈ 1.89 µM)	3.9 mg/L (≈ 7.55 µM)	0.488 mg/L (≈ 0.945 µM)	0.122 mg/L (≈ 0.236 µM)	250 mg/L (≈ 484 µM)	250 mg/L (≈ 484 µM)	250 mg/L (≈ 484 µM)	–	62.5 mg/L (≈ 121 µM)	62.5 mg/L (≈ 121 µM)	31.3 mg/L (≈ 60.6 µM)	–	–	31.3 mg/L (≈ 60.6 µM)	–	–	–	–
COC(=O)CSC(SCC(=O)N[C@@H]1C(=O)N2C(C(=O)O)=C(COC(C)=O)CS[C@H]12)=C(C#N)C(N)=O [Example 3, 7-(2-[2-Carbamoyl-1-(methoxycarbonylmethylthio)-2-cyanoethenylthio]acetamido) cephalosporanic acid]	1.95 mg/L (≈ 3.58 µM)	0.488 mg/L (≈ 0.896 µM)	3.9 mg/L (≈ 7.16 µM)	0.488 mg/L (≈ 0.896 µM)	0.122 mg/L (≈ 0.224 µM)	–	–	62.5 mg/L (≈ 115 µM)	125 mg/L (≈ 230 µM)	7.81 mg/L (≈ 14.3 µM)	62.5 mg/L (≈ 115 µM)	31.3 mg/L (≈ 57.5 µM)	–	–	–	–	–	–	–
C=CCSC(=NC#N)SCC(=O)N[C@@H]1C(=O)N2C(C(=O)O)=C(COC(C)=O)CS[C@H]12 [Example 19, 7-[2-[(cyanoimino)(2-propenylthio)methylthio]acetamido]cephalosporanic acid]	3.9 mg/L (≈ 8.29 µM)	1.95 mg/L (≈ 4.14 µM)	7.81 mg/L (≈ 16.6 µM)	1.95 mg/L (≈ 4.14 µM)	0.488 mg/L (≈ 1.04 µM)	125 mg/L (≈ 266 µM)	250 mg/L (≈ 531 µM)	250 mg/L (≈ 531 µM)	125 mg/L (≈ 266 µM)	250 mg/L (≈ 531 µM)	–	31.3 mg/L (≈ 66.5 µM)	–	31.3 mg/L (≈ 66.5 µM)	–	–	–	–	–
CC(=O)OCC1=C(C(=O)O)N2C(=O)[C@@H](NC(=O)CSC(=NC#N)SCc3ccc([N+](=O)[O-])cc3)[C@H]2SC1 [Example 13, 7-[2-[(cyanoimino)(4-nitrophenylmethylthio)methylthio]acetamido]cephalosporanic acid]	3.9 mg/L (≈ 6.9 µM)	1.95 mg/L (≈ 3.45 µM)	3.9 mg/L (≈ 6.9 µM)	1.95 mg/L (≈ 3.45 µM)	0.488 mg/L (≈ 0.863 µM)	125 mg/L (≈ 221 µM)	–	250 mg/L (≈ 442 µM)	250 mg/L (≈ 442 µM)	–	–	62.5 mg/L (≈ 110 µM)	–	62.5 mg/L (≈ 110 µM)	–	62.5 mg/L (≈ 110 µM)	–	–	–
CC(=O)OCC1=C(C(=O)O)N2C(=O)C(NC(=O)CSC(SCC#N)=C(C#N)S(C)(=O)=O)C2SC1 (centres unmarked) [Example 11, 7-[2-(2-Cyano-1-cyanomethylthio-2-methylsulfonylethenylthio)acetamido]cephalosporanic acid]	–	–	–	–	–	–	–	–	–	–	–	–	–	–	–	–	250 micrograms per milliliter	250 micrograms per milliliter	15.6 micrograms per milliliter
CCOC(=O)CSC(SCC(=O)N[C@@H]1C(=O)N2C(C(=O)O)=C(COC(C)=O)CS[C@H]12)=C(C#N)C#N [Example 1, 7-(2[2,2-Dicyano-1-(ethoxycarbonylmethylthio)ethenylthio]acetamido)cephalosporanic acid]	3.9 mg/L (≈ 7.21 µM)	0.976 mg/L (≈ 1.81 µM)	7.81 mg/L (≈ 14.4 µM)	0.976 mg/L (≈ 1.81 µM)	0.244 mg/L (≈ 0.451 µM)	250 mg/L (≈ 462 µM)	–	250 mg/L (≈ 462 µM)	250 mg/L (≈ 462 µM)	–	–	125 mg/L (≈ 231 µM)	–	125 mg/L (≈ 231 µM)	–	125 mg/L (≈ 231 µM)	–	–	–
CCOC(=O)CSC(SCC(=O)N[C@@H]1C(=O)N2C(C(=O)O)=C(COC(C)=O)CS[C@H]12)=C(C#N)C(N)=O [Example 4]	1.95 mg/L (≈ 3.49 µM)	0.488 mg/L (≈ 0.874 µM)	3.9 mg/L (≈ 6.98 µM)	0.488 mg/L (≈ 0.874 µM)	0.061 mg/L (≈ 0.109 µM)	–	–	250 mg/L (≈ 448 µM)	125 mg/L (≈ 224 µM)	3.9 mg/L (≈ 6.98 µM)	125 mg/L (≈ 224 µM)	62.5 mg/L (≈ 112 µM)	–	–	–	–	–	–	–
CC(=O)OCC1=C(C(=O)O)N2C(=O)[C@@H](NC(=O)CSC(=NC#N)SCc3ccccc3)[C@H]2SC1 [Example 10, 7-[2-[ (cyanoimino) (phenylmethylthio)methylthio]acetamido]cephalosporanic acid]	1.95 mg/L (≈ 3.75 µM)	0.976 mg/L (≈ 1.87 µM)	3.9 mg/L (≈ 7.49 µM)	0.976 mg/L (≈ 1.87 µM)	0.122 mg/L (≈ 0.234 µM)	15.6 mg/L (≈ 30 µM)	62.5 mg/L (≈ 120 µM)	15.6 mg/L (≈ 30 µM)	15.6 mg/L (≈ 30 µM)	62.5 mg/L (≈ 120 µM)	15.6 mg/L (≈ 30 µM)	3.9 mg/L (≈ 7.49 µM)	–	–	–	–	–	–	–
C#CCSC(=NC#N)SCC(=O)N[C@@H]1C(=O)N2C(C(=O)O)=C(COC(C)=O)CS[C@H]12 [Example 17, 7-[2-[(cyanoimino) (2-propynylthio)methylthio]acetamido]cephalosporanic acid]	3.9 mg/L (≈ 8.32 µM)	0.488 mg/L (≈ 1.04 µM)	3.9 mg/L (≈ 8.32 µM)	0.488 mg/L (≈ 1.04 µM)	0.122 mg/L (≈ 0.26 µM)	–	62.5 mg/L (≈ 133 µM)	31.3 mg/L (≈ 66.8 µM)	–	125 mg/L (≈ 267 µM)	62.5 mg/L (≈ 133 µM)	7.81 mg/L (≈ 16.7 µM)	–	–	7.81 mg/L (≈ 16.7 µM)	–	–	–	–
